Source: PubChem BioAssay (NCI)
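Exposure lasted 48 hours, with cells grown in 96-well plates and compounds tested at five concentrations. TGI: total growth inhibition.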

Tests used:
Assay in all cases: inhibition of tumour cell growth, NCI panel, 48 h
SNB-19 CNS = tested on: SNB-19 CNS
KM12 colon = tested on: KM12 colon
NCI-H226 lung = tested on: NCI-H226 lung
HCT-15 colon = tested on: HCT-15 colon
TK-10 renal = tested on: TK-10 renal
LOX IMVI melanoma = tested on: LOX IMVI melanoma
SK-MEL-2 melanoma = tested on: SK-MEL-2 melanoma
SW-620 colon = tested on: SW-620 colon
CAKI-1 renal = tested on: CAKI-1 renal
HCC-2998 colon = tested on: HCC-2998 colon
EKVX NSCLC = tested on: EKVX NSCLC
SK-OV-3 ovarian = tested on: SK-OV-3 ovarian
MALME-3M melanoma = tested on: MALME-3M melanoma
CCRF-CEM leukemia = tested on: CCRF-CEM leukemia
K-562 leukemia = tested on: K-562 leukemia
UO-31 renal = tested on: UO-31 renal
SF-268 CNS = tested on: SF-268 CNS
SN12C renal = tested on: SN12C renal
A549 NSCLC = tested on: A549 NSCLC
RPMI-8226 leukemia = tested on: RPMI-8226 leukemia

Structure (SMILES) | TGI (SNB-19 CNS) [µM] | TGI (KM12 colon) [µM] | TGI (NCI-H226 lung) [µM] | TGI (HCT-15 colon) [µM] | TGI (TK-10 renal) [µM] | TGI (LOX IMVI melanoma) [µM] | TGI (SK-MEL-2 melanoma) [µM] | TGI (SW-620 colon) [µM] | TGI (CAKI-1 renal) [µM] | TGI (HCC-2998 colon) [µM] | TGI (EKVX NSCLC) [µM] | TGI (SK-OV-3 ovarian) [µM] | TGI (MALME-3M melanoma) [µM] | TGI (CCRF-CEM leukemia) [µM] | TGI (K-562 leukemia) [µM] | TGI (UO-31 renal) [µM] | TGI (SF-268 CNS) [µM] | TGI (SN12C renal) [µM] | TGI (A549 NSCLC) [µM] | TGI (RPMI-8226 leukemia) [µM]
Cc1cccc2c(NCCN(C)C)c3cccc(C(=O)NCCN(C)C)c3nc12 | 11.2 | 1.04 | 5.68 | 13.9 | 8.94 | 1.76 | 1.13 | 7.78 | 4.92 | 1.33 | 4.29 | 27.1 | 1.62 | 0.813 | 0.065 | 1.63 | 2.85 | 1.69 | 29.2 | 0.21
C[C@]12CCc3nonc3C1CC[C@@H]1C2CC[C@@]2(C)C1CC[C@@H]2O (stereo partly specified) | > 100 | > 100 | > 100 | > 100 | > 100 | > 100 | > 100 | > 100 | > 100 | > 100 | > 100 | > 100 | > 100 | > 100 | > 100 | > 100 | > 100 | > 100 | > 100 | > 100
C#CC(C)(C)OCCCCOc1cc(O)c2c(=O)c3ccccc3n(C)c2c1 | > 100 | > 100 | > 100 | > 100 | > 100 | > 100 | > 100 | > 100 | > 100 | > 100 | > 100 | > 100 | > 100 | > 100 | > 100 | > 100 | > 100 | > 100 | > 100 | > 100
CC1SC2=NC3=C(c4ccccc4C3=O)C(c3ccccc3Cl)N2C1=O (stereo unspecified) | > 100 | > 100 | > 100 | > 100 | > 100 | > 100 | > 100 | > 100 | > 100 | > 100 | > 100 | > 100 | > 100 | > 100 | > 100 | > 100 | > 100 | > 100 | > 100 | > 100
CN(/N=C/c1ccc(Cl)c(Cl)c1)C1=NCCCCN1 | > 100 | 47.5 | 39.2 | 81.6 | > 100 | 27.2 | 42.1 | 38 | 82.7 | 63.9 | > 100 | > 100 | 32.5 | 83.5 | 69.3 |  | > 100 | > 100 | > 100 | 64
C1=CCC[C@@H]2CN3CCCC/C=C\CCCC[C@H]4C[C@H](CN(CCCCCCCC1)C4)[C@H]2CC3 | 22.2 | 15.6 | > 50 | 18.3 | 15.8 | 16 | 15.9 | 16.4 | 18.2 | 14.4 | 21.6 | > 50 | 17.5 | 34.9 | 24 |  | 21.3 | 21 | 17.8 | 16.7
Cc1nc(-n2nc(-c3ccccc3)cc2-c2ccccc2)sc1C(=O)/C=C/c1ccc([N+](=O)[O-])cc1 | > 100 | 38.1 | > 100 | > 61.9 | > 66.8 | 52.5 | > 100 | > 71.2 | > 55 | 38.1 | > 100 | > 100 | > 100 | 48.1 | > 70.6 | > 54 | > 87.6 | > 76.4 | > 100 | 23.5
COc1ccc(NC(=O)C(C#N)=C(SC)SC)cc1 | > 100 |  | > 100 | > 100 | > 100 | > 100 | > 100 | > 100 | > 100 | > 100 | > 100 | > 100 | > 100 | > 100 | > 100 | > 100 | > 100 | > 100 | > 100 | > 100
CCOC(=O)[C@@]1(C(C)=O)CC(C)=C(C)C[S@]1=O | > 100 | > 100 | > 100 | > 100 | > 100 | > 100 | > 100 | > 100 | > 100 | > 100 | > 100 | > 100 | > 100 |  | > 100 | > 100 | > 100 | > 100 | > 100 | > 100
CN/N=C(\C)C(CN1CCCCC1)C(C1=C(O)c2ccccc2OC1)c1ccccc1 (stereo unspecified) | > 100 | > 100 | > 100 | > 100 | > 100 | > 100 | > 100 | > 100 | > 100 | > 100 | > 100 | > 100 | > 100 | > 100 | > 100 | > 100 | > 100 | > 100 | > 100 | > 100
COC(=O)c1sc2c(=O)c(C(=O)OC)c(C(=O)OC)sc2c(=O)c1C(=O)OC | > 100 | > 100 | > 100 | > 100 | > 100 | > 100 | > 100 | > 100 | > 100 | > 100 | > 100 | > 100 | > 100 | > 100 | > 100 | > 100 | > 100 | > 100 | > 100 | > 100
COc1ccc2nc3cc([N+](=O)[O-])ccc3c(Nc3ccc(S(=O)(=O)Nc4ncccn4)cc3)c2c1 | > 53.6 | > 100 | > 100 | > 100 | > 100 | > 100 | > 86.3 | > 100 | > 100 | > 100 | > 100 | > 100 | > 100 | > 100 | > 88.2 | > 100 | > 100 | > 100 | > 100 | > 66.1
